Data reported in US3970648A, “2-[2-(5-Nitro-2-furyl)vinyl]-4-(anilino)quinazolines” (Diamond Shamrock Corporation, priority 1974, dated 1976).

Legend:
[1] = tested on: Streptococcus group E; experiment: Bactericide test, Streptococcus group E (agar streak plate); format: cell-based
Description: (§1) Test formulations were examined for bactericidal and/or bacteriostatic activity against the test organisms shown in Tables A and B. These organisms were chosen as being representative of commercially important pathogens affecting animal agriculture. The antibiotic chlortetracycline was chosen as a positive control, since it has a broad spectrum of activity against a large number of organisms, and its activity can be used for comparative purposes.
(§2) Basic test formulations of the product of Examples I, II, III, and of chlortetracycline were prepared by dissolving 16 mg (0.016 g) in 2.0 ml of stock emulsifier solution (0.25% Triton X-155 in acetone by volume) and making each solution up to 50 ml with deionized water. The concentration of the test compound in the basic formulation was 320 ppm. Lower concentrations of the test compound were obtained by diluting the basic formulation with a 4% solution of the stock emulsifier in deionized water so that each dilution in the series differed only in test compound content.
(§3) Nutrient-tryptic soy agar (NTA) consisting of 2.0% Difco Bactoagar 0.8% nutrient broth (Difco), and 0.5% tryptic soy broth (Difco) was prepared and sterilized by autoclaving. A 2 ml aliquot of each test formulation was added to 8 ml of molten NTA. This mixture was then plated in a sterile polystyrene petri dish (100 × 15 mm). After the agar was set, suspensions of each of the test organisms were simultaneously streaked onto the surface of the agar. The inoculated plates were incubated for 48 hr at 28°C. The inhibition of growth of each organism was rated by visual comparison with the organism developing on non-treated agar. Growth inhibition reported as per cent control was rated in three categories as follows: 0% control, growth equivalent to that on non-treated agar; 50% control, sparse development and separated colonies; 100% control, no visible growth or development of colonies.

[2] = tested on: Vibrio coli; experiment: Bactericide test, Vibrio coli (agar streak plate); format: cell-based
Description: as §1, §2, §3

[3] = tested on: Erysipelothrix rhusiopathiae; experiment: Bactericide test, Erysipelothrix rhusiopathiae (agar streak plate); format: cell-based
Description: as §1, §2, §3

[4] = tested on: Salmonella cholerasuis; experiment: Bactericide test, Salmonella cholerasuis (agar streak plate); format: cell-based
Description: as §1, §2, §3
(§4) Test formulations of the product of Example IV were examined for bactericidal and/or bacteriostatic activity against the test organisms shown in Table B using the Bactericide Test described in Example V. The inhibition of organism growth with each diluted test formulation was rated visually by comparison with the organism developing on a non-treated control agar plate. Growth inhibition reported as per cent control was rated in three categories as follows: 0% control, growth equivalent to that on non-treated agar; 50% control is sparse development and separated colonies; and 100% control, development of individual colonies was not apparent.

[5] = tested on: Salmonella gallinarum; experiment: Bactericide test, Salmonella gallinarum (agar streak plate); format: cell-based
Description: as §1, §2, §3, §4

[6] = tested on: Streptococcus agalactiae; experiment: Bactericide test, Streptococcus agalactiae (agar streak plate); format: cell-based
Description: as §1, §2, §3

[7] = tested on: Salmonella typhimurium; experiment: Bactericide test, Salmonella typhimurium (agar streak plate); format: cell-based
Description: as §1, §2, §3

[8] = tested on: Streptococcus faecalis; experiment: Bactericide test, Streptococcus faecalis (agar streak plate); format: cell-based
Description: as §1, §2, §3, §4

[9] = Growth promotion in chicks, Example XII first set (Table VI); format: in vivo, broiler cross chicks; conditions: for Average 4 Week Performance: Feed Efficiency / Average 4 Week Performance: Gain / Improved Response Over Basal Ration: Feed Efficiency / Improved Response Over Basal Ration: Gain: 25 g/T in basal ration, 4 weeks; for growth rate / feed efficiency, production parameters (in words): 25 g/T, first set of tests
Description: This example compares growth promotion activity of the product of Example I with other growth promotants at a concentration of 25 g/T in the Basal Ration described in Example VII. The other growth promotants include the product described in Example I of U.S. Pat. No. 3,542,784 -- Burch and quinoxaline-1,4-dioxide. Day old broiler cross chicks were weight equalized into groups of eight chicks each, and four replicates of eight chicks each were fed the experimental rations over a 4 week period. […]

[10] = tested on: Staphylococcus aureus; experiment: Bactericide test, Staphylococcus aureus (agar streak plate); format: cell-based
Description: as §1, §2, §3, §4

[11] = Growth promotion in chicks at 25 g/T, Example X (Table IV); format: in vivo, broiler cross chicks
Description: (§5) This example compares growth promotion activity of the product of Example I with other growth promotants at a concentration of 25 g/T in the Basal Ration described in Example VII. The other growth promotants include the product described in Example I of U.S. Pat. No. 3,542,784 -- Burch and quinoxaline-1,4-dioxide. Day old broiler cross chicks were weight equalized into groups of eight chicks each, and four replicates of eight chicks each were fed the experimental rations over a 4 week period.

[12] = tested on: Bordetella bronchiseptica; experiment: Bactericide test, Bordetella bronchiseptica (agar streak plate); format: cell-based
Description: as §1, §2, §3

[13] = Growth promotion in chicks, Example XII repeat (Table VII); format: in vivo, broiler cross chicks; conditions: for growth rate / feed efficiency, production parameters (in words): 25 g/T, second set of tests
Description: as §5
The growth promotion tests described in Example X were repeated with the additional testing the products of Examples II and III.

[14] = Growth promotion in chicks at low feed levels, Example VIII (Table II); format: in vivo, broiler cross chicks; conditions: 10 g/T in basal ration; 4 weeks
Description: Day old broiler cross chicks were weight equalized into groups of eight chicks each and were placed in battery brooders. The 32 chick treatment groups (four replicates) were fed one of the five rations described below for a 4 week period. Weekly measurements of body weights and feed consumption were made by replicate, and these measurements used to calculate weight gain and feed efficiency.
The basal ration was the basal ration used in Example VII above. The remaining five rations were obtained by mixing the indicated quantities of bacitracin (4 g/T), chlortetracycline (10 g/T), product of Example I (10 g/T), and product of Example III of U.S. Pat. No. 3,542,784 -- Burch (10 g/T) as growth promotants with the basal ration.

[15] = 100% inhibition at lower concentrations
[16] = 25 g/T in basal ration, 4 weeks

2-[2-(5-nitro-2-furyl)vinyl]-4-(o-hydroxyanilino)quinazoline [Example III]
% Inhibition ([1]; 0.125 ppm): 100% | % Inhibition ([1]; 0.25 ppm): 100% | % Inhibition ([1]; 0.5 ppm): 100% | % Inhibition ([1]; 1 ppm): 100% | % Inhibition ([1]; 2 ppm): 100% | % Inhibition ([1]; 4 ppm): 100% | % Inhibition ([1]; 8 ppm): 100% | % Inhibition ([1]; 16 ppm): 100% | % Inhibition ([1]; 32 ppm): 100% | % Inhibition ([1]; 64 ppm): 100% | effectiveness compared with chlortetracycline (in words) [1, 15]: considerably more effective | % Inhibition ([2]; 0.125 ppm): 100% | % Inhibition ([2]; 0.25 ppm): 100% | % Inhibition ([2]; 0.5 ppm): 100% | % Inhibition ([2]; 1 ppm): 100% | % Inhibition ([2]; 2 ppm): 100% | % Inhibition ([2]; 4 ppm): 100% | % Inhibition ([2]; 8 ppm): 100% | % Inhibition ([2]; 16 ppm): 100% | % Inhibition ([2]; 32 ppm): 100% | % Inhibition ([2]; 64 ppm): 100% | effectiveness compared with chlortetracycline (in words) [2, 15]: considerably more effective | % Inhibition ([3]; 1 ppm): 100% | % Inhibition ([3]; 2 ppm): 100% | % Inhibition ([3]; 4 ppm): 100% | % Inhibition ([3]; 8 ppm): 100% | % Inhibition ([3]; 16 ppm): 100% | % Inhibition ([3]; 32 ppm): 100% | % Inhibition ([3]; 64 ppm): 100% | effectiveness compared with chlortetracycline (in words) [3, 15]: considerably more effective | % Inhibition ([4]; 0.125 ppm): 0% | % Inhibition ([4]; 0.25 ppm): 0% | % Inhibition ([4]; 0.5 ppm): 0% | % Inhibition ([4]; 1 ppm): 0% | % Inhibition ([4]; 2 ppm): 0% | % Inhibition ([4]; 16 ppm): 100% | % Inhibition ([4]; 32 ppm): 100% | % Inhibition ([4]; 64 ppm): 100% | % Inhibition ([5]; 0.125 ppm): 0% | % Inhibition ([5]; 0.25 ppm): 0% | % Inhibition ([5]; 0.5 ppm): 0% | % Inhibition ([5]; 1 ppm): 0% | % Inhibition ([5]; 2 ppm): 0% | % Inhibition ([5]; 4 ppm): 50% | % Inhibition ([5]; 8 ppm): 50% | % Inhibition ([5]; 16 ppm): 100% | % Inhibition ([5]; 32 ppm): 100% | % Inhibition ([5]; 64 ppm): 100% | % Inhibition ([6]; 0.125 ppm): 100% | % Inhibition ([6]; 0.25 ppm): 100% | % Inhibition ([6]; 0.5 ppm): 100% | % Inhibition ([6]; 1 ppm): 100% | % Inhibition ([6]; 2 ppm): 100% | % Inhibition ([6]; 4 ppm): 100% | % Inhibition ([6]; 8 ppm): 100% | % Inhibition ([6]; 16 ppm): 100% | % Inhibition ([6]; 32 ppm): 100% | % Inhibition ([6]; 64 ppm): 100% | effectiveness compared with chlortetracycline (in words) [6, 15]: considerably more effective | % Inhibition ([7]; 0.125 ppm): 0% | % Inhibition ([7]; 0.25 ppm): 0% | % Inhibition ([7]; 0.5 ppm): 0% | % Inhibition ([7]; 1 ppm): 0% | % Inhibition ([7]; 2 ppm): 0% | % Inhibition ([7]; 4 ppm): 0% | % Inhibition ([7]; 8 ppm): 0% | % Inhibition ([7]; 16 ppm): 0% | % Inhibition ([7]; 32 ppm): 0% | % Inhibition ([7]; 64 ppm): 0% | % Inhibition ([8]; 0.125 ppm): 0% | % Inhibition ([8]; 0.25 ppm): 0% | effectiveness compared with chlortetracycline (in words) [8, 15]: considerably more effective | Average 4 Week Performance: Feed Efficiency [9]: 1.597 | Average 4 Week Performance: Gain [9]: 766.9 g | Improved Response Over Basal Ration: Feed Efficiency [9]: +2.3% | Improved Response Over Basal Ration: Gain [9]: +3.1% | growth rate / feed efficiency, production parameters (in words) [9]: moderate improvements | % Inhibition ([10]; 0.125 ppm): 0% | % Inhibition ([10]; 0.25 ppm): 0% | % Inhibition ([10]; 0.5 ppm): 0% | % Inhibition ([10]; 1 ppm): 0% | % Inhibition ([10]; 2 ppm): 0% | % Inhibition ([10]; 4 ppm): 0% | % Inhibition ([10]; 8 ppm): 0% | % Inhibition ([10]; 16 ppm): 0% | % Inhibition ([10]; 32 ppm): 0% | % Inhibition ([10]; 64 ppm): 0% | Average 4 Week Performance: Feed Efficiency [11, 16]: 1.503 | Average 4 Week Performance: Gain [11, 16]: 812.7 g | Improved Response Over Basal Ration: Feed Efficiency [11, 16]: +3.2% | Improved Response Over Basal Ration: Gain [11, 16]: +6.2% | % Inhibition ([12]; 0.125 ppm): 100% | % Inhibition ([12]; 0.25 ppm): 100% | % Inhibition ([12]; 0.5 ppm): 100% | % Inhibition ([12]; 1 ppm): 100% | % Inhibition ([12]; 2 ppm): 100% | % Inhibition ([12]; 4 ppm): 100% | % Inhibition ([12]; 8 ppm): 100% | % Inhibition ([12]; 16 ppm): 100% | % Inhibition ([12]; 32 ppm): 100% | % Inhibition ([12]; 64 ppm): 100% | effectiveness compared with chlortetracycline (in words) [12, 15]: considerably more effective | Average 4 Week Performance: Feed Efficiency [13, 16]: 1.669 | Average 4 Week Performance: Gain [13, 16]: 723.7 g | Improved Response Over Basal Ration: Feed Efficiency [13, 16]: +6.5% | Improved Response Over Basal Ration: Gain [13, 16]: +6.0% | growth rate / feed efficiency, production parameters (in words) [13]: more substantial response

O=[N+]([O-])c1ccc(-c2nc(Nc3ccc(O)cc3)c3ccccc3n2)o1 [2-(5-nitro-2-furyl)-4-(p-hydroxyanilino)quinazoline, reference compound]
Average 4 Week Performance: Feed Efficiency [14]: 1.726 | Average 4 Week Performance: Gain [14]: 723.1 g | Improved Response Over Basal Ration: Feed Efficiency [14]: +1.9% | Improved Response Over Basal Ration: Gain [14]: +0.4% | Average 4 Week Performance: Feed Efficiency [9]: 1.675 | Average 4 Week Performance: Gain [9]: 736.9 g | Improved Response Over Basal Ration: Feed Efficiency [9]: -2.5% | Improved Response Over Basal Ration: Gain [9]: -1.0% | growth rate / feed efficiency, production parameters (in words) [9]: essentially no effect on growth rate or feed efficiency | effect on feed efficiency (in words) ([11]; 25 g/T): slight, if any, effect on feed efficiency | growth response (in words) ([11]; 25 g/T): appeared to give a growth response | growth rate / feed efficiency, production parameters (in words) [13]: essentially no effect on growth rate or feed efficiency
